Experimental data from patent US20070203215A1, “Methods & Compositions For Enhancing Pharmaceutical Treatments” (Taiji Biomedical, Inc., priority 1999, published 2007).
Several values for one entry are separate records, joined by “and”; a condition that tells them apart may be missing. Identical values can stand only once.

How the values were obtained:
[1] = Enhancement of the oral bioavailability of paclitaxel and docetaxel in rats; assay type: in vivo; conditions: male, Sprague-Dawley, rat, plasma, 10 mg/kg, Drug alone (10 mg/kg) oral; for AUC(0-t): read-out: AUC0-8
Procedure: In a further example, separate groups of eight male Sprague-Dawley rats (250-300 g body weight) with cannulae inserted into the jugular vein were purchased from Harlan-Sprague Dawley (Madison, Wis.). Animals were allowed free movement and access to water but were fasted for at least 8 h prior to the dose until study completion. […] Immediately prior to administration the mixture was diluted in saline to provide a paclitaxel or docetaxel concentration of 1mg/ml. Animals were then administered 10 μl/g body weight by oral gavage.
Serial blood samples (500 μl) were drawn prior to each dose (time 0) and at 0.5, 1, 2, 3, 4, 6 and 8 h through a cannula inserted into the jugular vein. The blood was collected into Microtainer® tubes containing EDTA anticoagulant. Whole blood was centrifuged under refrigeration at 2800 rpm for 10-20 minutes. Plasma samples were stored at −20° C. until analysis using a validated HPLC-MS method. Maximum plasma paclitaxel concentration (Cmax) and time to achieve this concentration (Tmax) were measured from concentration vs. time profiles. Area under the concentration vs. time curve from 0-8 hours (AUC0-8) was calculated using the linear and log trapezoidal methods in the rising and declining phases of the concentration vs. time curve respectively.

[2] = Blood-brain barrier penetration of loperamide, mouse hot-plate test; assay type: in vivo, mice; conditions: loperamide alone, i.v. 1-16 mg/kg
From the text: These increases were dose dependent with respect to loperamide.

[3] = Saquinavir in rat cerebrospinal fluid and brain after oral ONT-093 or vehicle; assay type: in vivo, Sprague Dawley rats; conditions: Group 4: after vehicle, 30 min after saquinavir dose, individual animals 4001-4004
Procedure: (§1) Blood samples (ca 0.3 mL) were collected from 8 selected rats by jugular venipuncture during slight anesthesia pre-dose and at 0.25, 0.5, 1, 2, 4 and 8 post-dose (saquinavir dose). Cerebrospinal fluid (CSF) and brain tissue were collected terminally from the remaining 8 rats at ca 30 min following administration of the dose of saquinavir. Blood samples were collected into tubes containing EDTA and placed on wet ice pending centrifugation. Plasma, CSF and brain tissue samples were stored at ca −80° C. until analysis of saquinavir by LC/MS. The vehicle used was polyethylene glycol (PEG-400)1 Tween 20 (9:1; v:v).
(§2) A total of 16 male Sprague Dawley rats were received from Charles River Canada (Saint-Constant, Quebec). Animals were approximately 9 weeks of age at arrival and weighed ca 312-340 g. Four males were randomly assigned to each of Groups 1, 2, 3 and 4. On the day of dosing and following an overnight fast, animals were weighed (ca 305-323 g) and were administered their respective combination of doses. Animals of Groups 1 and 3 received a single oral dose of ONT-093 (20 mg/kg) by gavage at a dose volume of 2 mL/kg. Animals of Groups 2 and 4 received a single oral dose of the vehicle by gavage at a dose volume of 2 mL/kg. Approximately 30 min following administration of either ONT-093 or the vehicle, all animals received a single oral dose of saquinavir (20 mg/kg) by gavage at a dose volume of 1 mL/kg.
(§3) Following administration of saquinavir, blood samples (ca 0.3 mL in EDTA) were obtained from all rats of Groups 1 and 2 by jugular venipuncture during anesthesia with isoflurane (Ohmeda Pharmaceutical Products) at each of the following time-points: pre-dose (prior to administration of ONT-093 or vehicle) and 0.25, 0.5, 1, 2, 4 and 8 hr post-dose. Following administration of saquinavir, CSF was obtained from all animals of Groups 3 and 4 at 30 min following dose administration. CSF was collected (in tubes containing no anticoagulant) from the cistema magna during anesthesia with isoflurane. Following CSF collection, the animals were sacrificed by exsanguination via puncture of the vena cava and the brain was harvested from all these rats. Immediately following collection, all samples (blood, CSF and brain) were placed on ice until further processing or storage. Blood samples were centrifuged (ca 3080 g at ca 4° C. for 10 min) and the resulting plasma samples were stored at ca −80° C. pending analysis. CSF samples and brains were stored at ca −80° C. pending analysis.
(§4) Plasma samples, CSF samples and brains were analyzed for unchanged saquinavir using an LC/MS assay. Pharmacokinetic analysis was performed on plasma concentrations using the PhAST Software Program, Version 2.2-00 (Phoenix International Life Sciences Inc.). The highest observable concentration was assumed to be the peak concentration (Cmax); Time to Cmax was denoted Tmax. The area under the plasma concentration versus time-curve from time zero to the last measurable concentration [AUC(tf] was calculated by the linear trapezoidal method. Where applicable, numerical values were subjected to calculation of group means and % CV. Student-T-test with Satterthwaite approximation was performed on AUC and Cmax values to compare ONT-093 treated animals versus vehicle treated animals using SAS software program, Version 6.12 (SAS Institute Inc., Gary, N.C.). Where values were below limit of quantification, zero was used for pharmacokinetic analysis. The bioavailability (F) of saquinavir when administered with ONT-093 was calculated relative to the AUC values obtained from the animals receiving saquinavir following administration of the vehicle.

[4] = Clinical signs after saquinavir dose; assay type: in vivo, Sprague Dawley rats
Procedure: This clinical sign was no longer observable approximately 30 to 60 min after it was first observed.

[5] = in vivo; conditions: male, Sprague Dawley, rat; for concentration at 2 hr: 2 hr Post-Dose
Procedure: as §1, §2, §3, §4

[6] = single agent + vehicle; paclitaxel 24 mg/kg i.v. Q5D x6 + 36 mg/kg i.v. Q5D x2; Formula 2 compound 30 mg/kg p.o. afternoon before and BID day of treatments
Procedure: Non-tumor bearing athymic mice were treated with the compound of Formula 2 and (or) paclitaxel as described.

[7] = tested on: MDA/LCC6^MDR1 tumors; assay: In vivo antitumor efficacy, orthotopic MDA/LCC6^MDR1 tumors; parameters: species or system SCID/RAG2 mice; conditions: single agent alone; paclitaxel 12 mg/kg i.v.; Formula 2 free base 30 mg/kg p.o.
Procedure: Anti-tumor efficacy experiments with orthotopic MDA/LCC6 and MDA/LCC6^MDR1 tumors were conducted in female SCID/RAG2 mice. Ascites propagated cells (2×10^6 in 50 μl) were injected into mammary fat pads bilaterally on day 0 before randomization into groups of 5 mice per group. Paclitaxel (12 mg/kg/dose) was administered QD i.v. (tail vein) in 200 μl saline/Cremophor/ethanol (8/1/1 by volume) on days 5, 12, 19, and 26. The compound of Formula 2-free base (30 mg/kg/dose) was administered BID p.o. by gavage in 100 μl PEG 400/Tween 20 (9/1 by volume) on days 4-6, 11-13, 18-20, and 25-27. Mean body weights were recorded at least every other day. Tumor weight was monitored approximately every other day by caliper measurements and calculated according to the formula (Tumor weight =(length×width^2)÷2). This conversion formula was verified by comparing the calculation derived tumor weights to excised and weighed tumors. Animals bearing ulcerated tumors or where tumor weight exceeded 10% of the animal's body weight were terminated. The weights of the bilateral tumors were averaged for each mouse and mean tumor weights for each treatment group±standard error of the mean were calculated. Statistical analysis was carried out by Mann-Whitney test using GraphPad Prism software (San Diego, Calif.).
The compound of Formula 2 was administered the afternoon before, 2 hours before and 6 hours after each paclitaxel dose. The ability of orally administered Formula 2 compound to reverse MDR in solid tumors in vivo was assessed with the MDA/LCC6^MDR1 model. Because the compound of Formula 2 produced no effect on paditaxel blood levels, focus on up-front therapy (for naive animals) or minimal residual disease models was maintained, as opposed to established tumors. MDA/LCC6^MDR1 cells that express P-gp were resistant to paclitaxel treatment in vitro and this resistance was reversed by the compound of Formula 2 (FIG. 1). […] Similar results were obtained in three independent experiments with two different strains of immunocompromised mice (SCID/RAG-2 and athymic). […]

[8] = Oral paclitaxel bioavailability enhancement in rats (mesylate salt); assay type: in vivo; conditions: male, Sprague Dawley, rat, plasma, Group 2: paclitaxel 40 mg/kg p.o. + vehicle
Procedure: A total of 21 male Sprague Dawley rats were used. Animals were approximately 8 weeks of age at arrival and weighed ca 327-359 g.
Following analysis of paclitaxel, all remaining plasma were tested for a determination of the Formula 2 compound concentration.
Plasma samples were analyzed for unchanged paclitaxel using a liquid chromatography/mass spectroscopy (“LC/MS”) assay. […] The highest observable concentration was used as the peak concentration (Cmax). Time to Cmax was denoted as Tmax. […] The area under the plasma concentration curve extrapolated to infinity (AUC(I)) was calculated as the sum of AUC(0-t) plus the ratio of the last plasma concentration to the elimination rate constant. The terminal elimination constant (K) was calculated from the last 3 non-zero points of the log-linear regression. Half-life (tot) was determined by dividing 0.693 by K. The apparent plasma clearance (CL/F) was calculated for paclitaxel by dividing the nominal dose administered by AUC(I). […] Where values were below the limit of quantification, zero was used for pharmacokinetic analysis. Statistical analysis consisted of a Student-T-test with Two-sample unequal variance approximation and was performed on AUC90-t) and Cmax values to compare the Formula 2 compound treated animals vs. the corresponding vehicle treated animals.

[9] = tested on: tumor-bearing mice; conditions: 20 mg/kg paclitaxel alone once per week

SMILES: CC(=O)O[C@@]12CO[C@@H]1C[C@H](O)[C@@]1(C)C(=O)[C@H](O)C3=C(C)[C@@H](OC(=O)[C@H](O)[C@@H](NC(=O)OC(C)(C)C)c4ccccc4)C[C@@](O)([C@@H](OC(=O)c4ccccc4)[C@H]21)C3(C)C [Docetaxel]
- Cmax ([1]; control of the OCFB series): 37 ng/mL
- AUC(0-t) ([1]; control of the OCFB series): 32 ng·h/mL
- Cmax ([1]; control of the OCM series): 30 ng/mL
- AUC(0-t) ([1]; control of the OCM series): 69 ng·h/mL

SMILES: CN(C)C(=O)C(CCN1CCC(O)(c2ccc(Cl)cc2)CC1)(c1ccccc1)c1ccccc1 [Loperamide]
- Effect on mouse hot-plate escape time [2]: no effect

SMILES: CC(C)(C)NC(=O)[C@@H]1C[C@@H]2CCCC[C@@H]2CN1C[C@@H](O)[C@H](Cc1ccccc1)NC(=O)[C@H](CC(N)=O)NC(=O)c1ccc2ccccc2n1 [Saquinavir]
- Saquinavir Concentration in Brain [3]: BLQ (3×) and 1.40 ng/mL
- Saquinavir Concentration in CSF [3]: BLQ
- concentration at 30 min ([3]; male, Sprague Dawley, rat, brain, oral, 20 mg/kg): 1.4 ng/mL
- Rats with slight salivation immediately following the saquinavir dose ([4]; Group 1 (ONT-093 pretreatment)): 3 of 4
- Rats with slight salivation immediately following the saquinavir dose ([4]; Group 2 (vehicle pretreatment)): 2 of 4
- Rats with slight salivation immediately following the saquinavir dose ([4]; Group 3 (ONT-093 pretreatment)): 3 of 4
- Rats with slight salivation immediately following the saquinavir dose ([4]; Group 4 (vehicle pretreatment)): 4 of 4
- concentration at 0.25 hr ([5]; Concentration of Saquinavir in plasma, 0.25 hr Post-Dose, Mean): 84.6 ng/mL
- concentration at 0.5 hr ([5]; Concentration of Saquinavir in plasma, 0.5 hr Post-Dose, Mean): 72.5 ng/mL
- concentration at 1 hr ([5]; Concentration of Saquinavir in plasma, 1 hr Post-Dose, Mean): 99.5 ng/mL
- concentration at 2 hr ([5]; Concentration of Saquinavir in plasma): 205 ng/mL
- concentration at 2 hr ([5]; Concentration of Saquinavir in plasma, Mean): 157 ng/mL
- concentration at 4 hr ([5]; Concentration of Saquinavir in plasma, 4 hr Post-Dose, Mean): 48.5 ng/mL
- concentration at 8 hr ([5]; Concentration of Saquinavir in plasma, 8 hr Post-Dose, Mean): 4.92 ng/mL
- AUC(0-inf) ([5]; po, 20 mg/kg): 524 ng·h/mL
- AUC(0-t) ([5]; po, 20 mg/kg): 514 ng·h/mL
- CL/F ([5]; po, 20 mg/kg): 654 mL/min/kg
- Cmax ([5]; po, 20 mg/kg): 181 ng/mL
- Tmax ([5]; po, 20 mg/kg): 1.6 h

SMILES: CC(=O)O[C@H]1C(=O)[C@@]2(C)[C@H]([C@H](OC(=O)c3ccccc3)[C@]3(O)C[C@H](OC(=O)[C@H](O)[C@@H](NC(=O)c4ccccc4)c4ccccc4)C(C)=C1C3(C)C)[C@]1(OC(C)=O)CO[C@@H]1C[C@@H]2O [Paclitaxel]
- Survival [6]: 0/4
- In vivo tumor growth compared to the vehicle control [7]: no significant effect
- AUC(0-t) [8]: 67 ng·h/mL
- half-life ([8]; read-out: Paclitaxel mean terminal phase half-life (t1/2) (converted)): 3.9 h
- Cmax ([1]; control of the OCFB series): 99 ng/mL
- AUC(0-t) ([1]; control of the OCFB series): 266 ng·h/mL
- Cmax ([1]; control of the OCM series): 75 ng/mL
- AUC(0-t) ([1]; control of the OCM series): 189 ng·h/mL
- Lethality [9]: 50%
- Tumor growth / tumor formation [9]: significantly inhibited tumor growth, but did not completely prevent tumor formation at any injection site
